Data set [1] can be described thus: Antifouling assay against barnacle larvae. To be noted: Amphibalanus amphitrite (barnacle), in vivo, barnacle larvae. The data set is classed as in vivo. On the procedure: (§1) An antifouling assay against larvae of the barnacle Amphibalanus amphitrite was conducted according to the previous literature. The antifouling assay against diatoms Nitzschia sp. and Cylindrotheca closterium was conducted as follows. The diatoms were maintained in test tubes under 16 h light and 8 h dark cycle conditions at 25 °C in modified Jorgensen’s medium. Pure compounds were applied to a sample zone (16 mm in diameter) of cellulose TLC aluminum sheet (58 × 58 mm), and then each treated sheet was placed in Petri dish (15 × 90 mm in diameter). After that, 25-mL aliquots of modified Jorgensen’s medium were introduced into Petri dishes with treated sheets, and inoculated with 1 mL of cultivated diatom suspension in equivalent cell densities. Petri dishes were sealed with Parafilm to ensure a closed system, and were incubated under the same conditions. Cell growth was estimated daily, and the adhesive condition was evaluated and compared to those of the control after seven days of incubation.

The subject of data set [2] is larvae of the barnacle Amphibalanus amphitrite. The data set is described as follows: Antifouling assay against barnacle larvae. The data set is classed as in vivo. To be noted: for toxicity to larvae: at 10 µg/mL. On the procedure: as §1
The test system of the next data set is Nitzschia sp. Kind of data set: Antifouling (anti-diatom) assay on treated cellulose TLC sheet. The data set is classed as cell-based. To be noted: at 5–10 µg/cm^2, seven days of incubation. On the procedure:
as §1

The test system of another data set is Cylindrotheca closterium. The description is as above. To be noted: at 5–10 µg/cm^2, seven days of incubation. The data set is classed as cell-based. On the procedure: as §1
[3] abbreviates: values in text, read-out: toxicity LC50.
Where [4] appears, read: Amphibalanus amphitrite, barnacle larvae, Table 4, read-out: EC50.
Setting [5] is: Amphibalanus amphitrite, barnacle larvae, values in text, read-out: antifouling activity EC50.
Setting [6] is: barnacle larvae, values in text.
Setting [7] is: Table 4, dash entries, read-out: LC50.
Where [8] appears, read: Amphibalanus amphitrite, barnacle larvae, Table 4, dash entries, read-out: EC50.

pEC50: −log10 of the molar value. Like-named read-outs stand apart in the source and are kept apart here.

Turning to `CC[C@@H]1[C@@H]2[C@H]3OC(C=C=CBr)C[C@H]3O[C@]2(O)[C@@H](Br)C[C@H]1Br` (relative stereo) [Compound 3, hachijojimallene A], the 50% lethal concentration (LC50) (in general, the concentration lethal to half of the exposed cells or organisms) in data set [1] (Table 4, read-out: LC50) stood at 20000 nM; in data set [1] (setting [3]) it was 9.8 µg/mL. Moreover, the pEC50 (usually the EC50 on a negative log10 scale, so that one unit is a factor of ten) in data set [2] (setting [4]) was 6.51. Also, the EC50 (commonly the concentration at which the effect is half-maximal) in data set [2] (setting [5]) was in the range of 0.15 to 0.23 µg/mL. For the same compound, the “antifouling activity EC50” value in data set [2] (setting [6]) was found to be 0.15 µg/mL.

For `CC[C@@H]1[C@@H]2[C@H]3OC(C=C=CBr)C[C@H]3O[C@@]23O[C@@H]1C[C@@H]3Br` (relative stereo) [Compound 4, hachijojimallene B], the LC50 in data set [1] (Table 4, read-out: LC50) was 17000 nM; in data set [1] (setting [3]), 6.8 µg/mL. For the same compound, the negative-log EC50 (pEC50) in data set [2] (setting [4]) was 6.12. Further, the 50% effective concentration (EC50) in data set [2] (setting [5]) is 0.31 µg/mL.

Consider `CC(C)=CCCC(C)C1(O)CCC2(C)C(Br)CCC(C)(O)C2C1` (centres unmarked) [Compound 1, omaezol], for which the LC50 was 9600 nM in data set [1] (Table 4, read-out: LC50) and 3.7 µg/mL in data set [1] (setting [3]). The pEC50 in data set [2] (setting [4]) is 6.23. In addition, the EC50 in data set [2] (setting [5]) lay in the range of 0.15 to 0.23 µg/mL. For the same compound, the “antifouling activity EC50” value in data set [2] (setting [6]) came to 0.23 µg/mL.

Regarding `CC(C)(Cl)C(Br)CCC(C)(O)C1CCC(C)(C(O)CCC2OC3(C(C)(O)CCC(Br)C(C)(C)Cl)CCC2(C)O3)O1` (centres unmarked) [Compound 2, intricatriol], in data set [1] (setting [7]), the LC50 was more than 10 µg/mL. The EC50 in data set [2] (setting [8]) and in data set [2] (setting [5]) was more than 10 µg/mL each time.

Regarding `Cc1ccc2c(c1)O[C@@]1(C=O)[C@@H](C)CC[C@@]21C` [Compound 5, debromoaplysinal], in data set [1] (setting [7]), the 50% lethal concentration (LC50) was more than 10 µg/mL. Further, the pEC50 in data set [2] (setting [4]) was 5.37. Further, in data set [2] (setting [5]), the EC50 came to 1 µg/mL. Besides, in data set [2], the toxicity to larvae result is “did not kill any larvae”.

As to `CC1=C(/C=C/C(C)=C/CC/C(C)=C/CO)C(C)(C)CC(O)C1` (centres unmarked) [Compound 6, 11,12-dihydro-3-hydroxyretinol], the anti-diatom activity result in the data set on Nitzschia sp. and with Cylindrotheca closterium was “showed inhibition” throughout.

In the case of `Cc1cc(O)c([C@]2(C)CC[C@@H]3C[C@@]32C)cc1Br` [Compound 8, laurinterol], the LC50 was 20000 nM in data set [1] (Table 4, read-out: LC50) and 5.8 µg/mL in data set [1] (setting [3]). Moreover, the negative-log EC50 (pEC50) in data set [2] (setting [4]) was 5.66. In data set [2] (setting [5]), the EC50 worked out at 0.65 µg/mL.

On to `C=C1[C@@H](C)CC[C@@]1(C)c1cc(Br)c(C)cc1O` [Compound 9, isolaurinterol], for which the median lethal concentration (LC50) in data set [1] (setting [7]) and in data set [1] (setting [3]) was more than 10 µg/mL throughout. In addition, the negative-log EC50 (pEC50) in data set [2] (setting [4]) was 5.92. For the same compound, the EC50 in data set [2] (setting [5]) came to 0.34 µg/mL.

On to `Cc1ccc([C@]2(C)CC[C@@H]3C[C@@]32C)c(O)c1` [Compound 10, debromolaurinterol], for which the 50% lethal concentration (LC50) in data set [1] (setting [7]) and in data set [1] (setting [3]) was more than 10 µg/mL throughout. Besides, the pEC50 in data set [2] (setting [4]) was 5.64. The EC50 in data set [2] (setting [5]) stood at 0.5 µg/mL.

In the case of `Cc1ccc([C@]2(C)CC[C@@H](Br)C2(C)C)cc1` [Compound 11, α-bromocuparene], the LC50 in data set [1] (setting [7]) is more than 10 µg/mL. Besides, the EC50 in data set [2] (setting [8]) is more than 10 µg/mL. In addition, in data set [2] (barnacle larvae, result in words), the antifouling activity result was “inactive”.

For `CC1(C)C(Br)=C[C@H]2O[C@@]2(C)[C@]12C[C@H](Br)[C@@](C)(Cl)C[C@@H]2O` [Compound 12, prepacifenol], the median lethal concentration (LC50) in data set [1] (setting [7]) and in data set [1] (setting [3]) was more than 10 µg/mL throughout. In data set [2] (setting [4]), the negative logarithm of the EC50 (pEC50) is 5.82. Besides, in data set [2] (setting [5]), the half-maximal effective concentration (EC50) came out at 0.63 µg/mL. Moreover, the anti-diatom activity result in the data set with Nitzschia sp. and in the data set on Cylindrotheca closterium was “showed inhibition” each time.

Consider `CC1(C)[C@]23C[C@H](Br)[C@@](C)(Cl)C[C@@H]2O[C@@]1(Br)C=C[C@@]3(C)O` [Compound 13, pacifenol], for which the LC50 in data set [1] (setting [7]) and in data set [1] (setting [3]) was more than 10 µg/mL in each case. Besides, the pEC50 in data set [2] (setting [4]) was 5.26. The concentration giving a half-maximal response (EC50) in data set [2] (setting [5]) is 2.36 µg/mL.

Consider `CC1=C[C@H](O)[C@@H](Br)C(C)(C)[C@]12CC[C@](C)(Cl)[C@@H](Br)C2` [Compound 14, 2,10-dibromo-3-chloro-9-hydroxy-α-chamigrene], for which the LC50 in data set [1] (setting [7]) and in data set [1] (setting [3]) was more than 10 µg/mL in each case. Also, the pEC50 in data set [2] (setting [4]) is 5.21. The EC50 in data set [2] (setting [5]) was 2.51 µg/mL. Also, the anti-diatom activity entry in the data set on Nitzschia sp. and in the data set on Cylindrotheca closterium was “showed inhibition” in each case.

For `O=S(=O)([O-])[O-].[Cu+2]` [CuSO4, reference compound], in data set [2] (barnacle larvae, Table 4), the 50% lethal concentration (LC50) turned out to be 1400 nM. The negative-log EC50 (pEC50) in data set [2] (barnacle larvae, Table 4, read-out: EC50) was 6.14. Also, the “antifouling activity EC50” value in data set [2] (setting [6]) was found to be 0.18 µg/mL.

Regarding `Cn1c(Br)c(Br)c2ccc(Br)cc21` [N-methyl-2,3,6-tribromoindole], in data set [2] (setting [5]), the EC50 came to 4.3 µg/mL. For the same compound, in data set [2], the toxicity to larvae entry is given as “not toxic”.

The record behind these values is PMC5618406, “New Marine Antifouling Compounds from the Red Alga Laurencia sp” (Marine Drugs, 2017).
